In BindingDB's records for doi:10.1111/cbdd.12663 (West China Hospital, 2016):
pIC50: −log10 of the molar value.

What was measured:
Assay in all cases: DPP-IV Inhibition Screening Assay
[1] = target: Dipeptidyl peptidase 4 [K6R,T557I] (Homo sapiens, UniProt P27487, K6R/T557I)
Method: (§1) DPP-IV inhibition was measured by DPP-IV inhibitor screening assay kit (Cayman Chemical Company, Item No. 700210) following the manufacturer's instructions. Briefly, solutions of test compounds at varying concentrations were prepared in dimethyl sulfoxide (DMSO) and then diluted into assay buffer. Human recombinant DPP-IV was added to the dilutions and preincubated for 30 min at 37 °C before the reaction was initiated by the addition of fluorogenic substrate solution AMC (Gly-Pro-Aminomethylcoumarin). Human recombinant DPP-8 or DPP-9 was added to the dilutions and preincubated for 10 min at 22 °C before the reaction was initiated by the addition of fluorogenic DPP substrate. The kinetics of the reaction wasmonitored (excitation at 380 nm, emission at 460 nm).

Dipeptidyl peptidase 9 = Dipeptidyl peptidase 9 (Homo sapiens, UniProt Q86TI2)
Sequence of Dipeptidyl peptidase 9 (Q86TI2 whole entry): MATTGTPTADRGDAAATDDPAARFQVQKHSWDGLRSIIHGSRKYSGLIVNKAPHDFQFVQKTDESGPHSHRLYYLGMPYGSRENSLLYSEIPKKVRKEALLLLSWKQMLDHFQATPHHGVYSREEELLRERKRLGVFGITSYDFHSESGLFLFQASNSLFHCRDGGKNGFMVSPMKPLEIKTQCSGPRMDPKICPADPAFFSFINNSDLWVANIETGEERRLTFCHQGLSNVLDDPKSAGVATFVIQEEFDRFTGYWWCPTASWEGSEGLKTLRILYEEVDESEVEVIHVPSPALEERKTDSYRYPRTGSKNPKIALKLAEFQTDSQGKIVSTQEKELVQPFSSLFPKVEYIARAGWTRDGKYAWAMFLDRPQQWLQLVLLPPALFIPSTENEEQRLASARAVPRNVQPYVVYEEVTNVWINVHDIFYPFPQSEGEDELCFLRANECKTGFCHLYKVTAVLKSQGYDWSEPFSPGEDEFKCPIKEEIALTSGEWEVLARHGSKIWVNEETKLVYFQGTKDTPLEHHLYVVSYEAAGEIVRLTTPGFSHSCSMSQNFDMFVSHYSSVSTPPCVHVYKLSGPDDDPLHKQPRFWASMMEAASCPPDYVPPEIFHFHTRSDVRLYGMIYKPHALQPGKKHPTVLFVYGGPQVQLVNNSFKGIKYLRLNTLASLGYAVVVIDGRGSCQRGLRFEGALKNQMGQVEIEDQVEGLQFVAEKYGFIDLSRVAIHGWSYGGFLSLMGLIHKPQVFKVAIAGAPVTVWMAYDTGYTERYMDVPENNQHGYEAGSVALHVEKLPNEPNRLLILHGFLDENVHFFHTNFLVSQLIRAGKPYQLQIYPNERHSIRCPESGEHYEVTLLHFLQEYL
Method: as §1

Dipeptidyl peptidase 8 = Dipeptidyl peptidase 8 (Homo sapiens, UniProt Q6V1X1)
Sequence of Dipeptidyl peptidase 8 (Q6V1X1 whole entry): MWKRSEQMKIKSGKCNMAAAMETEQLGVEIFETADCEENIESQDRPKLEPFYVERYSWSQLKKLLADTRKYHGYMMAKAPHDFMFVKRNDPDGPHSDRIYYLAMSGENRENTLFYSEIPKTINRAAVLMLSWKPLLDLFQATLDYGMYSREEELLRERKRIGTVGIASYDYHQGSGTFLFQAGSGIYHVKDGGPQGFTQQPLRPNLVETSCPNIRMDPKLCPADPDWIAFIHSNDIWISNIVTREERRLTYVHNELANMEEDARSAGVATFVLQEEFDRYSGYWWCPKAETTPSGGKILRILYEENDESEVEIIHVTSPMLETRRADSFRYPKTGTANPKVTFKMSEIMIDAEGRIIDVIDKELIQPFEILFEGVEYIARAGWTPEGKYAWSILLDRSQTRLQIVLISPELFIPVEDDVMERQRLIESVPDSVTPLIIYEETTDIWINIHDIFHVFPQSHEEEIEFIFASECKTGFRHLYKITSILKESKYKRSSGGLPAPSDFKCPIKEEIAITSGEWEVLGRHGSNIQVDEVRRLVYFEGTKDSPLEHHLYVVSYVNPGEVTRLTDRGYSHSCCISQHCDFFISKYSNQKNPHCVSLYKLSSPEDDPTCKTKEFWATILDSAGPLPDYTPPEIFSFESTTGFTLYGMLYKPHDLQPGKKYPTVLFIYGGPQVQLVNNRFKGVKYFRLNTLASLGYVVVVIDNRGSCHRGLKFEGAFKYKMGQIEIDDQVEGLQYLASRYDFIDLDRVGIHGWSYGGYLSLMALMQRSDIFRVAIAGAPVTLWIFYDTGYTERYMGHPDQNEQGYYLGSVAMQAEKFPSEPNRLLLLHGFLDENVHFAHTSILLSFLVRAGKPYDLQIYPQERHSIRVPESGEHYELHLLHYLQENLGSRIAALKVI
Method: as §1

Sequence of Dipeptidyl peptidase 4 [K6R,T557I] (P27487 whole entry K6R/T557I/D663E): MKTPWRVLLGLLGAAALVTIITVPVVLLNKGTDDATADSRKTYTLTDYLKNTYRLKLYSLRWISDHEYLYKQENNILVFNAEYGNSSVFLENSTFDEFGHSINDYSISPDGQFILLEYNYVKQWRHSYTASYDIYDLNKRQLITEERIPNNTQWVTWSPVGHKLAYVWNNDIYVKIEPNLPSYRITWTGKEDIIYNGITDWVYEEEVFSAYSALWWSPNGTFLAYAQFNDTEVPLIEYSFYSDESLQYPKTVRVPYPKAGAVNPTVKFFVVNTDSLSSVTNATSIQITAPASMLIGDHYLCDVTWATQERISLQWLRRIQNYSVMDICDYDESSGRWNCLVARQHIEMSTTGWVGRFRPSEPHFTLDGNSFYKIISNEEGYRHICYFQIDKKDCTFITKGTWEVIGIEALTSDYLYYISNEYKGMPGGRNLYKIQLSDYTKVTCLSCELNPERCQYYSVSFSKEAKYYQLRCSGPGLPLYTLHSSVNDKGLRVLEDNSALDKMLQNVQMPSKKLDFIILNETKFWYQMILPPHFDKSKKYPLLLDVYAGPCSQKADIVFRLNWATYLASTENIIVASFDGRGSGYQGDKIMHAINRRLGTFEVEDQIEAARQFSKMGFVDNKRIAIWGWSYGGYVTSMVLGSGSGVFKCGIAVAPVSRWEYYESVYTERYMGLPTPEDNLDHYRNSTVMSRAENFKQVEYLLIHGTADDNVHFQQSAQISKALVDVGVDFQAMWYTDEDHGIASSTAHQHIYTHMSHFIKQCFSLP

Row | pIC50 [1] | pIC50 (Dipeptidyl peptidase 9) | pIC50 (Dipeptidyl peptidase 8) | SMILES
1 | 7.44 | < 4.00 | < 4.00 | CC(C)=CCn1c(N2CCC[C@@H](N)C2)nc2c1c(=O)n(Cc1nc3ccccc3s1)c(=O)n2C [(R)-43]
2 | 6.97 | < 4.00 | < 4.00 | CC(C)=CCn1c(N2CCC[C@H](N)C2)nc2c1c(=O)n(Cc1ccccc1C#N)c(=O)n2C [(S)-40]
3 | 7.43 | < 4.00 | < 4.00 | CC(C)=CCn1c(N2CCC[C@H](N)C2)nc2c1c(=O)n(Cc1nc3ccccc3s1)c(=O)n2C [(S)-43]
4 | 7.63 | < 4.00 | < 4.00 | CC(C)=CCn1c(N2CCC[C@@H](N)C2)nc2c1c(=O)n(Cc1ccccc1C#N)c(=O)n2C [(R)-40]
